{"source": "patent US7105492B2", "about": "“Camptothecin derivatives having antitumor activity” (priority 1999, dated 2006)", "key": {"[1]": {"details": "cited from earlier work; for crossing of the hematoencephalic barrier (in words): in vivo"}, "[2]": {"molecular_target": "T1, topoisomerase i (Homo sapiens, UniProt P11387)", "T1 sequence (P11387 1-765)": "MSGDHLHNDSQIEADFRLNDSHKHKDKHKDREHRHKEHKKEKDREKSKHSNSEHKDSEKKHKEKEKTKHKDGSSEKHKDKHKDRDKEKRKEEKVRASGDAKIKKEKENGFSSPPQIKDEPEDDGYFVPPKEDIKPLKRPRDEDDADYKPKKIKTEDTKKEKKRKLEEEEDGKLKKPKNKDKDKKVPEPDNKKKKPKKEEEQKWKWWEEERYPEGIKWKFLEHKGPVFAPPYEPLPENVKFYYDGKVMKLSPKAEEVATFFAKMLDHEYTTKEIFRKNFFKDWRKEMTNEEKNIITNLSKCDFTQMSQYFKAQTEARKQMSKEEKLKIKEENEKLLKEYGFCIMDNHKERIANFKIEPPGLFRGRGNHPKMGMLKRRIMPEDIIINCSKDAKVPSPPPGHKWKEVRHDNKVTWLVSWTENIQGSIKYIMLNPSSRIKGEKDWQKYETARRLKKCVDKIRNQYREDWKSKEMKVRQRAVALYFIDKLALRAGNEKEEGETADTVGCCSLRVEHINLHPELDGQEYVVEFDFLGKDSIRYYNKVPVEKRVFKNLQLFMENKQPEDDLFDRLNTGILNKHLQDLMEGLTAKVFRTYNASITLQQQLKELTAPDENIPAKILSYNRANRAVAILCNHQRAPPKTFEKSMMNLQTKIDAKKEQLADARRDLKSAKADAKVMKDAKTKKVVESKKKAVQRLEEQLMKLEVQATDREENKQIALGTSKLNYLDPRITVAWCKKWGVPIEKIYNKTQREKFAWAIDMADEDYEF", "assay": "Persistence of topoisomerase I-mediated DNA cleavage after addition of 0.6 M NaCl", "assay_type": "biochemical", "details": "for Reversibility / persistence of the DNA cleavages (in words): after sodium chloride (0.6 M), about 10 minutes; for PERSISTENCE (%) of DNA cleavage on selected sites: drug 10 μm, 20 minutes incubation, then sodium chloride (0.6 M), examined after about 10 minutes", "experimental": "An important drawback of conventional camptothecins is the reversibility of the their bond in the ternary complex (drug-DNA-enzyme).\nAfter 20 minutes of incubation of the drug in the reaction mixture containing labelled DNA and the purified enzyme, sodium chloride (0.6 M) was added with the scope of assisting the dissociation of the ternary complex."}, "[3]": {"system": "NCI H460 lung non-small cell carcinoma", "assay": "Antiproliferative activity test (cytotoxic activity) on NCI H460 cells", "assay_type": "cell-based, human", "details": "H-460", "experimental": "Cytotoxic activity of the compounds of the present invention was assayed in cell systems of human tumour cells, using the antiproliferative activity test as a method of evaluation of the cytotoxic potential.\nThe cell line used is a lung non-small cell carcinoma that belongs to non-small cells hystotype named NCI H460."}, "[4]": {"system": "MKN-28 human gastric carcinoma", "assay": "ST 1737 per os in athymic nude mice bearing s.c. MKN-28 human gastric carcinoma", "assay_type": "in vivo", "details": "q4d × 4; for TVI % (tumor volume inhibition % in treated over control tumors): at 11–12 day after last treatment"}, "[5]": {"assay": "Water solubility (remark in Table 4)", "assay_type": "physicochemical"}, "[6]": {"system": "A2780 ovarian ca", "assay": "Antitumor activity on tumor models: A2780", "assay_type": "in vivo, mice", "details": "A2780, 15 mg/kg", "from_the_text": "(§1) This broad spectrum of anticancer activity was confirmed in mice transplanted with human tumor xenografts, including NSCLC (H460, A549), prostate ca. (JCA-1), glioblastoma (GBM/7), gastric ca. (MKN28), osteosarcoma (U2OS), ovarian ca. (A2780/Dx, A2780/DDP) and colon (HT29, CoBA) carcinomas as well as in murine lung cancer (M109) and leukaemia model (L1210)."}, "[7]": {"system": "H460 = NSCLC", "assay": "Antitumor activity on tumor models: H460", "assay_type": "in vivo, mice", "details": "H460, 15 mg/kg", "from_the_text": "as §1"}, "[8]": {"system": "lung carcinoma NCI H460", "assay": "Antitumoral activity in nude mice implanted s.c. with NCI H460 tumour fragments (Table 1)", "details": "q4d × 4; for Efficacy (TVI %): evaluated 5–10 days after the last treatment", "protocol": "For the in vivo studies, the solubilization was carried out in 10% DMSO in bidistilled water, being impossible the solubilization in saline, and the administration for the oral route was carried out at a volume of 10 ml/kg.\nAtimic nu/nu Swiss mice (Charles River, Calco, Italia), ageing 10–12 weeks were used. The animals were maintained in laminar flow rooms, according to the guidelines of the United Kingdom Co-ordination Committee Cancer Research. Experimental protocols were approved by the Ethical Committee for animal experimentation of Istituto Nazionale per lo Studio e Cura dei Tumori.\nTumour fragments of about 2×2×2 mm coming from mice to which were inoculated s.c. 10^6 cells NCI H460/topo, were implanted s.c. bilaterally in groups of 5 mice each.\nTwice a week, using a Vernier caliper, the width, minimum diameter (l), length and maximum diameter (L) of the tumors were measured, in mm. The tumour volume (mm^3) was calculated according to the formula I^2×L/2. Efficacy of the molecule was evaluated as TVI percent of the treated group versus the control group according to the formula TVI%=100−(T/C×100), wherein T is the mean value of the tumour volume of the treated group and C of control one."}, "[9]": {"system": "DU145 prostate ca", "assay": "Antitumor activity on tumor models: DU145", "assay_type": "in vivo, mice", "details": "DU145, 15 mg/kg"}, "[10]": {"system": "A2780/DDP ovarian ca", "assay": "Antitumor activity on tumor models: A2780/DDP", "assay_type": "in vivo, mice", "details": "15 mg/kg", "from_the_text": "as §1"}, "[11]": {"system": "JCA-1 prostate ca", "assay": "Antitumor activity on tumor models: JCA-1", "assay_type": "in vivo, mice", "details": "JCA-1, 15 mg/kg", "from_the_text": "as §1"}, "[12]": {"system": "A2780/Dx ovarian ca", "assay": "Antitumor activity on tumor models: A2780/Dx", "assay_type": "in vivo, mice", "details": "A2780/Dx, 15 mg/kg", "from_the_text": "as §1\nThe high cytotoxic potency of the compounds of the present invention, herein represented in an exemplary way with one of the preferrred compounds, CPT 184, is also reflected by the potent antitumor activity. […] Moreover, the compounds of the present invention, in particular the CPT 184, were able to induce 100% CR in the A2780/DX tumor characterized by a MDR-phenotype."}, "[13]": {"system": "HT29 colon ca", "assay": "Antitumor activity on tumor models: HT29", "assay_type": "in vivo, mice", "details": "HT29, 15 mg/kg", "from_the_text": "as §1"}, "[14]": {"system": "U87 glioblastoma", "assay": "Antitumor activity on tumor models: U87", "assay_type": "in vivo, mice", "details": "U87, 15 mg/kg"}, "[15]": {"system": "IGROV-1 ovarian ca", "assay": "Antitumor activity on tumor models: IGROV-1", "assay_type": "in vivo, mice", "details": "IGROV-1, 15 mg/kg"}, "[16]": {"system": "GBM/7 glioblastoma", "assay": "Antitumor activity on tumor models: GBM/7", "assay_type": "in vivo, mice", "details": "GBM/7, 15 mg/kg", "from_the_text": "as §1"}, "[17]": {"system": "CoBA colon ca", "assay": "Antitumor activity on tumor models: CoBA", "assay_type": "in vivo, mice", "details": "15 mg/kg", "from_the_text": "as §1"}, "[18]": {"system": "L1210 = murine leukemia", "assay": "Antitumor activity on tumor models: L1210 leukemia, increase in life span", "assay_type": "in vivo, mice", "details": "L1210, 15 mg/kg", "from_the_text": "as §1"}}, "note": "Where “and” joins values, the source holds several entries; their conditions need not be identical. Identical values can stand only once.", "data": [{"smiles": "CC[C@@]1(O)C(=O)OCc2c1cc1n(c2=O)Cc2cc3ccccc3nc2-1", "note": "[Camptothecin]", "values": [{"measurement": "crossing of the hematoencephalic barrier (in words)", "setting": "[1]", "value": "does not cross hematoencephalic barrier in significant amount"}, {"measurement": "Reversibility / persistence of the DNA cleavages (in words)", "setting": "[2]", "value": "almost complete reversibility of the cleavages"}, {"measurement": "PERSISTENCE (%) of DNA cleavage on selected sites", "setting": "[2]", "value": 16, "unit": "%"}]}, {"smiles": "CC[C@@]1(O)C(=O)OCc2c1cc1n(c2=O)Cc2c-1nc1ccccc1c2C=Nc1ccccc1SSc1ccccc1N", "note": "[ST 1737, 7–2-(2-aminophenyldithio)phenyliminomethylcamptothecin]", "values": [{"measurement": "IC50", "setting": "[3]", "value": 17, "unit": "nM"}, {"measurement": "Tox (Dead/treated mice)", "setting": "[4]; 4 mg/kg per os", "value": "0/4"}, {"measurement": "TVI % (tumor volume inhibition % in treated over control tumors)", "setting": "[4]; 4 mg/kg per os", "value": 69, "unit": "%"}, {"measurement": "Tox (Dead/treated mice)", "setting": "[4]; 7 mg/kg per os", "value": "0/4"}, {"measurement": "TVI % (tumor volume inhibition % in treated over control tumors)", "setting": "[4]; 7 mg/kg per os", "value": 56, "unit": "%"}, {"measurement": "BWL % (body weight loss % induced by drug treatment)", "setting": "[4]; 12 mg/kg per os", "value": 4, "unit": "%"}, {"measurement": "Tox (Dead/treated mice)", "setting": "[4]; 12 mg/kg per os", "value": "0/4"}, {"measurement": "TVI % (tumor volume inhibition % in treated over control tumors)", "setting": "[4]; 12 mg/kg per os", "value": 68, "unit": "%"}, {"measurement": "water solubility (in words)", "setting": "[5]", "value": "(water soluble)"}]}, {"smiles": "CC[C@@]1(O)C(=O)OCc2c1cc1n(c2=O)Cc2cc3c(CN(C)C)c(O)ccc3nc2-1", "note": "[TPT, Topotecan, reference compound]", "values": [{"measurement": "TVI %", "setting": "[6]", "value": 96, "unit": "%"}, {"measurement": "TVI %", "setting": "[7]", "value": 98, "unit": "%"}, {"measurement": "Toxicity Lethality", "setting": "[8]; 10 mg/kg p.o.", "value": "0/5"}, {"measurement": "Efficacy (TVI %)", "setting": "[8]; 10 mg/kg p.o.", "value": 64, "unit": "%"}, {"measurement": "Toxicity Lethality", "setting": "[8]; 15 mg/kg p.o.", "value": "0/4 and 0/5"}, {"measurement": "Efficacy (TVI %)", "setting": "[8]; 15 mg/kg p.o.", "value": "94% and 89%"}, {"measurement": "TVI %", "setting": "[9]", "value": 77, "unit": "%"}, {"measurement": "TVI %", "setting": "[10]", "value": 92, "unit": "%"}, {"measurement": "TVI %", "setting": "[11]", "value": 95, "unit": "%"}, {"measurement": "TVI %", "setting": "[12]", "value": 92, "unit": "%"}, {"measurement": "no evidence of tumor at the end of the treatment lasting for about 10 days from the last administration", "setting": "[12]", "value": "(2/10*)"}, {"measurement": "TVI %", "setting": "[13]", "value": 65, "unit": "%"}, {"measurement": "TVI %", "setting": "[14]", "value": 82, "unit": "%"}, {"measurement": "in the cerebrospinal fluid with respect to plasma", "setting": "[1]; 10 min after infusion", "value": 30, "unit": "%"}, {"measurement": "lactone form hydrolysed to open ring", "setting": "[1]; 30 min after infusion", "value": 50, "unit": "%"}, {"measurement": "crossing of the hematoencephalic barrier (in words)", "setting": "[1]", "value": "crosses hematoencephalic barrier"}, {"measurement": "Reversibility / persistence of the DNA cleavages (in words)", "setting": "[2]", "value": "almost complete reversibility of the cleavages"}, {"measurement": "PERSISTENCE (%) of DNA cleavage on selected sites", "setting": "[2]", "value": 16, "unit": "%"}, {"measurement": "TVI %", "setting": "[15]", "value": 89, "unit": "%"}, {"measurement": "TVI %", "setting": "[16]", "value": 96, "unit": "%"}, {"measurement": "no evidence of tumor at the end of the treatment lasting for about 10 days from the last administration", "setting": "[16]", "value": "(1/10*)"}, {"measurement": "TVI %", "setting": "[17]", "value": 85, "unit": "%"}, {"measurement": "ILS % = percent increase in life span", "setting": "[18]", "value": 39, "unit": "%"}]}]}
